Reference: paper PMC11404609, “Gut microbiota-mediated C-sulfonate metabolism impairs the bioavailability and anti-cholestatic efficacy of andrographolide” (Gut Microbes, 2024)
Several values for one entry are separate records, joined by “and”; a condition that tells them apart may be missing. Identical values can stand only once.

Experiments:
Type in all cases: in vivo
[1] = Plasma pharmacokinetics of AP after oral administration in mice; settings: for Fr (%) relative oral bioavailability / AUC(0-inf) / AUC(0-t) / Cmax / Tmax / half-life: AP 100 mg/kg oral gavage; for AUC(0-inf) / AUC(0-t) / Cmax / Tmax / half-life: mouse, plasma, po, 100 mg/kg, mean ± SD
Method: Mice were orally administered APS reductase inhibitor bromocriptine mesylate (20 mg/kg, p.o.) or Na2SO4 (200 mg/kg, p.o.) or saline solution 1 week prior to AP treatment (a single dose of AP at 100 mg/kg, p.o.). Blood samples (50 μL) were collected at predetermined time points (0, 10, 20, 40, 60, 90, 120, 240, 360 min). In specific cases, mice were orally administrated with D. piger suspension (0.2 mL, 1 × 10^9 CFU/mL) or saline solution by oral gavage for 2 weeks before AP treatment (a single dose of AP at 100 mg/kg, p.o.).
(§1) The pharmacokinetic parameters of AP including peak time (Tmax), maximum concentration (Cmax), area under the curve from zero time to the last time point measured (AUC0-t), area under the curve from zero time to infinity (AUC0-∞), and elimination half-life (t1/2) were estimated using DAS 2.0 software (Shanghai, China). The relative oral bioavailability (Fr) of AP was calculated by the following equation: Fr(%)=AUC0−∞of ABX/Inhibitor/SO42−/D.piger/AUC0−∞of Control×100%
(§2) An ACQUITY^TM UPLC-MS/MS system equipped with an ACQUITY^TM UPLC BEH C18 Column (50 × 2.1 mm I.D., 1.7 μm, Waters, Milford, MA, USA) was utilized for the quantification of AP and APM as previously described.[47] Briefly, the detection samples (50 μL) were mixed with 50 μL of IS (50 ng/mL). AP and APM were extracted by 400 μL cold methanol. Supernatants were dried under nitrogen stream. Then, the residue was dissolved with 50% methanol in water, centrifuged for 30 min at 13,000 rpm, and 10 µL of the supernatant was subjected to UPLC-MS/MS analysis. The mobile phases consisted of eluent A (water) and eluent B (methanol) with a gradient elution as follows: 0–0.8 min, 10% B; 0.8–1.2 min, 10–90% B; 1.2–5.0 min, 90% B; 5.0–5.5 min, 90–10% B; 5.5–7.0 min, 10% B. The flow rate was 0.3 mL/min and the injection volume of all samples was 10 μL. The quantification of AP, APM and IS was performed by UPLC-MS/MS using an MRM method with the transitions of m/z 349.1→m/z 287.2 for AP, m/z 413.2→m/z 287.2 for APM, m/z 269→m/z 133 for IS.

[2] = Plasma pharmacokinetics of AP after oral administration in rats; settings: for AUC(0-t) / Cmax / Tmax / half-life / AUC(0-inf): rat, plasma, po, 120 mg/kg, mean ± SD; for AUC(0-t) / Cmax / Tmax / half-life / AUC(0-inf) / Fr (%) relative oral bioavailability: AP 120 mg/kg oral gavage
Method: Control and ABX rats were orally administered a single dose of AP at 120 mg/kg. Blood samples (500 μL) were collected at predetermined time intervals (0, 5, 10, 20, 30, 40, 60, 90, 120, 180, 240, 360, and 480 min). In some cases, APS reductase inhibitor bromocriptine mesylate (20 mg/kg, p.o.) or Na2SO4 (200 mg/kg, p.o.) was given to rats 1 week before AP treatment.
as §1, §2

[3] = In-situ single-pass intestinal perfusion of AP; settings: rats, AP 20 μM co-perfused with Na2SO4 40 μM vs AP alone
Method: The rat intestinal perfusion experiment was conducted based on previous literature reports^6, 7. The experimental animals were divided into two groups: Control and SO4^2- groups. Rats were anaesthetised via the intraperitoneal injection of 50% urethane at a dose of 2.4 mL/kg. Two segments of the intestine, specifically the duodenum and jejunum, each measuring 5-10 cm in length, were cannulated simultaneously. The primary tube was affixed to a syringe controlled by an infusion pump (Model PHD2000 Harvard Apparatus, Cambridge, Massachusetts). The inlet cannula was insulated and maintained in a constant temperature of 37°C in circulating water bath to ensure the perfusate’s thermal stability. Following the surgical procedure, the two segments of Control group were perfused with 20 μM AP, and the two segments of SO4^2- group were co-perfused with AP (20 μM) and Na2SO4 (40 μM). The perfusion was conducted at the flow rate of 0.17 mL/min and perfusate samples were collected every 15 min (15, 30, 45, 60, 75, and 90 min). The concentrations of AP and APM in the perfusate at the outlet were determined through UPLC-MS/MS analysis.

[4] = mice, Control group (Table 3), n = 10
[5] = mice, Control group (Table 4), n = 12
[6] = mice, D. piger group (D. piger suspension by gavage 2 weeks before), n = 12
[7] = mice, Inhibitor group (bromocriptine mesylate 20 mg/kg p.o. 1 week before), n = 10
[8] = mice, SO4^2- group (Na2SO4 200 mg/kg p.o. 1 week before), n = 10
[9] = SD, rats, Control group (Table 1), n = 4
[10] = Sprague-Dawley (SD), rats, Control group (Table 2), n = 4
[11] = Sprague-Dawley (SD), rats, Inhibitor group (bromocriptine mesylate 20 mg/kg p.o. 1 week before), n = 4
[12] = Sprague-Dawley (SD), rats, SO4^2- group (Na2SO4 200 mg/kg p.o. 1 week before), n = 5
[13] = Sprague-Dawley, rats, Control group (Table 2), n = 4
[14] = Sprague-Dawley, rats, Inhibitor group (bromocriptine mesylate 20 mg/kg p.o. 1 week before), n = 4
[15] = Sprague-Dawley, rats, SO4^2- group (Na2SO4 200 mg/kg p.o. 1 week before), n = 5

reduction in AP bioavailability ([1]; mice colonized with D. piger): 60.11% | Fr (%) relative oral bioavailability ([1]; mice, D. piger group vs Control (AUC0-∞ ratio)): 39.89% | Fr (%) relative oral bioavailability ([1]; mice, Inhibitor group vs Control (AUC0-∞ ratio)): 147.48% | Fr (%) relative oral bioavailability ([1]; mice, SO4^2- group vs Control (AUC0-∞ ratio)): 29.42% | increase in AP bioavailability ([1]; mice, inhibition of APS reductase by bromocriptine mesylate): 47.48% | reduction in AP bioavailability ([1]; mice, treatment of Na2SO4): 70.58% | AUC(0-inf) [1, 4]: 772 ng·h/mL | AUC(0-t) [1, 4]: 646 ng·h/mL | Cmax [1, 4]: 500 ± 330 ng/mL | Tmax [1, 4]: 0.533 h | half-life [1, 4]: 2.43 ± 1.12 h | AUC(0-inf) [1, 5]: 1030 ng·h/mL | AUC(0-t) [1, 5]: 909 ng·h/mL | Cmax [1, 5]: 760 ± 440 ng/mL | Tmax [1, 5]: 0.695 h | half-life [1, 5]: 2.27 ± 1.09 h | AUC(0-inf) [1, 6]: 411 ng·h/mL | AUC(0-t) [1, 6]: 374 ng·h/mL | Cmax [1, 6]: 360 ± 280 ng/mL | Tmax [1, 6]: 0.583 h | half-life [1, 6]: 1.29 ± 0.643 h | AUC(0-inf) [1, 7]: 1140 ng·h/mL | AUC(0-t) [1, 7]: 906 ng·h/mL | Cmax [1, 7]: 970 ± 370 ng/mL | Tmax [1, 7]: 0.45 h | half-life [1, 7]: 2.43 ± 1.44 h | AUC(0-inf) [1, 8]: 227 ng·h/mL | AUC(0-t) [1, 8]: 199 ng·h/mL | Cmax [1, 8]: 142 ± 30 ng/mL | Tmax [1, 8]: 0.283 h | half-life [1, 8]: 2.22 ± 1.74 h | enhancement in the relative oral bioavailability of AP ([2]; ABX-treated rats vs Control): 70.11% and 70% | AUC(0-t) ([2]; SD, rats, ABX group, n = 4): 4430 ng·h/mL | Cmax ([2]; SD, rats, ABX group, n = 4): 1330 ± 250 ng/mL | Tmax ([2]; SD, rats, ABX group, n = 4): 0.708 h | half-life ([2]; SD, rats, ABX group, n = 4): 2.31 ± 0.734 h | AUC(0-t) [2, 9]: 2360 ng·h/mL | Cmax [2, 9]: 690 ± 190 ng/mL | Tmax [2, 9]: 0.833 h | half-life [2, 9]: 3.07 ± 0.928 h | AUC(0-inf) [2, 10]: 3690 ng·h/mL | AUC(0-t) [2, 10]: 3440 ng·h/mL | AUC(0-inf) [2, 11]: 8020 ng·h/mL | AUC(0-t) [2, 11]: 7520 ng·h/mL | AUC(0-inf) [2, 12]: 1870 ng·h/mL | AUC(0-t) [2, 12]: 1360 ng·h/mL | half-life [2, 12]: 4.38 ± 3.23 h | AUC(0-inf) ([2]; Sprague-Dawley, rats, ABX group, n = 4): 5110 ng·h/mL | AUC(0-inf) ([2]; Sprague-Dawley, rats, Control group (Table 1), n = 4): 3000 ng·h/mL | Cmax [2, 13]: 1420 ± 710 ng/mL | Tmax [2, 13]: 0.5 h | half-life [2, 13]: 2.04 ± 0.397 h | Cmax [2, 14]: 2750 ± 710 ng/mL | Tmax [2, 14]: 0.583 h | half-life [2, 14]: 1.82 ± 0.589 h | Cmax [2, 15]: 490 ± 190 ng/mL | Tmax [2, 15]: 0.533 h | Fr (%) relative oral bioavailability ([2]; rats, ABX group vs Control (AUC0-∞ ratio)): 170.11% | Fr (%) relative oral bioavailability ([2]; rats, Inhibitor group vs Control (AUC0-∞ ratio)): 217.24% | Fr (%) relative oral bioavailability ([2]; rats, SO4^2- group vs Control (AUC0-∞ ratio)): 50.70% | increase in AP bioavailability ([2]; rats, inhibition of APS reductase by bromocriptine mesylate): 117.24% and 117% | reduction in AP bioavailability ([2]; rats, treatment of Na2SO4): 49.30% | AP C-sulfonate metabolism [3]: substantial increase
SMILES: C=C1CC[C@@H]2[C@](C)(CO)[C@H](O)CC[C@@]2(C)[C@@H]1C/C=C1/C(=O)OC[C@H]1O [AP, Andrographolide]
